The structures appear in SMILES notation. Where a name gives a salt, the structure may show the parent alone.

Assay [1] concerns the target T1, PC12 P2X receptor (Rattus norvegicus, UniProt P49653).
T1 construct: host or cells: HEK293 cells (oocytes are also named for the functional characterisation of clone 3)
T1 sequence (P49653 1-472): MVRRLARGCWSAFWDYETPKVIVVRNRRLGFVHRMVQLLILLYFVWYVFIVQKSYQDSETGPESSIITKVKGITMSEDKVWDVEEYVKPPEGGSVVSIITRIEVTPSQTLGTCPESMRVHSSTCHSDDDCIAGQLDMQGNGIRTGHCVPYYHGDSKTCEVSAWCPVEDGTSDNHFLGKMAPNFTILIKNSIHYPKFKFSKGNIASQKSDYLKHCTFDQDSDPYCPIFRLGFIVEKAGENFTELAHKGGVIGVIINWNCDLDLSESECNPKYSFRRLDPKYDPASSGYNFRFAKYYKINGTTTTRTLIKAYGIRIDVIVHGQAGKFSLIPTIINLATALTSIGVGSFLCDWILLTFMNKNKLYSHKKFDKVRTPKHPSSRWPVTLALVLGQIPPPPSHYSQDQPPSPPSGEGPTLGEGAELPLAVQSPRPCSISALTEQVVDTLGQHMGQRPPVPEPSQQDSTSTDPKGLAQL
In words: functional properties of cloned P2X receptors (electrical recordings): PC12. The assay is classed as cell-based. The settings on record: for Ca++ block, PC12: Table A, extracellular calcium 30 mM in text. Here is the method: (§1) HEK 293 cells were transfected by the lipofectin method (Felgner et al., Proc. Nat'l. Acad. Sci. USA 84 7413-7417 (1987)) with P2X -plasmid. DNA concentration used was 1 mg/2 ml medium placed into a 35 mm petri dish containing four 11 mm diameter coverslips on which HEK cells were placed at 10,000 cells per coverslip. […] Currents were recorded from HEK 293 cells using whole-cell recording methods and the AXOPATCH™ 200 amplifier (Axon Instruments); patch pipettes (5 M.OMEGA.) contained (mM) Cs or K aspartate 140, NaCl 5, EGTA 11, HEPES 5. The external solution was (mM) NaCl 150, KCl2, CaCl2 2, MgCl2 1, HEPES 5 and glucose 11; the pH and osmolarity of both solutions were maintained at 7.3 and 305 mosmol/l respectively. All recordings performed at room temperature. Data acquisition and analysis were performed using pCLAMP™ and AXOGRAPH™ software (Axon Instruments). […] The pH and osmolarity of the solutions were 7.4 and 295 mosmol/l respectively. For single channel measurements, a […]™ 500 amplifier and outside-out recording methods were used (Adelman et al., Neuron 9 209-216 (1992)). Wax-coated patch pipettes (5-10 M.OMEGA.) contained (mM) K-gluconate 115, HEPES 5, BAPTA 5 and MgCl2 0.5, external solution was 96 mM NaCl, 2 mM KCl, 1.8 mM CaCl2, 1 mM MgCl2, 5 mM Hepes pH 7.6, and 5 mM sodium pyruvate.
(§2) The functional characterisation of the clone illustrated in FIG. 2 (referred to herein as clone 3) was carried out by electrical recordings from transfected HEK293 cells and from oocytes injected with the in vitro transcribed RNA, as described in Example 4 for the rat vas deferens P2X receptor. Table A summarizes the main properties of clone 3 as compared to those of rat vas/human bladder cDNA clone, and the PC12 cDNA clone (provided by David Julius and Tony Brake of the University of California at San Francisco).

For assay [2], the target named is T2, rat superior cervical ganglion P2X receptor (clone 3) (Rattus norvegicus, UniProt P51577).
T2 construct: The insert appeared to be a full length cDNA; expressed in transfected cells; host or cells: HEK293 cells transfected with pcDNA3 construct p464 (also oocytes injected with in vitro transcribed RNA)
T2 sequence (P51577 1-388): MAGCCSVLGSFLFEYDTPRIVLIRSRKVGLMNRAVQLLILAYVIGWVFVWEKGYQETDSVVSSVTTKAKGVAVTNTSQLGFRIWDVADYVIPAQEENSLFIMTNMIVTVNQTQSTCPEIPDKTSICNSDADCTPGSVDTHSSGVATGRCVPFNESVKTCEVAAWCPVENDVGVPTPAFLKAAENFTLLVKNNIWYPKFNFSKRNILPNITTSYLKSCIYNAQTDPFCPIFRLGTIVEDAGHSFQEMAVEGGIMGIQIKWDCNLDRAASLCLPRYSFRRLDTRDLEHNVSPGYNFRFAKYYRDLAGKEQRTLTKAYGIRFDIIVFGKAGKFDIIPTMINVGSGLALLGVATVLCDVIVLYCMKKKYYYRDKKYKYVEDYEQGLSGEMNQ
In words: functional properties of cloned P2X receptors (electrical recordings): clone 3. The class given is cell-based. To be noted: Table A, extracellular calcium 30 mM in text. Here is the method: as §1, §2

Assay [3] deals with T3, rat vas/human bladder P2X cDNA clone (Homo sapiens, UniProt P51575).
T3 construct: expressed in transfected cells; host or cells: HEK293 cells (oocytes are also named for the functional characterisation)
T3 sequence (P51575 1-399): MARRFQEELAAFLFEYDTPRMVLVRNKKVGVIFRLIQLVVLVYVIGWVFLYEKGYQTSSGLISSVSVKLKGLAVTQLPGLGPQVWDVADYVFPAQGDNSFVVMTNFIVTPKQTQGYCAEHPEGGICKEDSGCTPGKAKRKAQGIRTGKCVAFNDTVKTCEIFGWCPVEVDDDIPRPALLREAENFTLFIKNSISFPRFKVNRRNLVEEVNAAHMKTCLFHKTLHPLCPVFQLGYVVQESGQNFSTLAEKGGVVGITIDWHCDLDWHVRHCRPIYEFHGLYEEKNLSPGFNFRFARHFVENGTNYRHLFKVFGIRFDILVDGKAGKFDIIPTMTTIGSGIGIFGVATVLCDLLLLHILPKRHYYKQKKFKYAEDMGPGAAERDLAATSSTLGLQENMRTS
In words: functional properties of cloned P2X receptors (electrical recordings): bladder. The assay is classed as cell-based. The settings on record: Table A, extracellular calcium 30 mM in text. Here is the method: DNA concentration used was 1 mg/2 ml medium placed into a 35 mm petri dish containing four 11 mm diameter coverslips on which HEK cells were placed at 10,000 cells per coverslip. […] Currents were recorded from HEK 293 cells using whole-cell recording methods and the AXOPATCH™ 200 amplifier (Axon Instruments); patch pipettes (5 M.OMEGA.) contained (mM) Cs or K aspartate 140, NaCl 5, EGTA 11, HEPES 5. […] All recordings performed at room temperature. Data acquisition and analysis were performed using pCLAMP™ and AXOGRAPH™ software (Axon Instruments). […] ATP was applied by U-tube typically for 1 s; data was sampled at 5 kHz in 2 s segments beginning 300 ms prior to onset of agonist (ATP) application and filtered at 1 kHz.

The target in assay [4] is T4, hP2X (Homo sapiens, UniProt P51575).
T4 construct: expressed in transfected cells; host or cells: Xenopus oocytes injected with in vitro transcribed RNA
T4 sequence (P51575 1-399): T3 sequence (P51575 1-399)
As to the kind of experiment: antagonist inhibition of ATP-evoked currents in Xenopus oocytes expressing hP2X. The class given is cell-based. Here is the method: Human urinary bladder P2X cDNA, subcloned into the pBKCMV expression vector, was linearized with Notl, and transcribed in vitro with T3 polymerase in the presence of cap analogue m7G(5')ppp(5')G. Defolliculated Xenopus oocytes (Bertrand et al, Electrophysiology of neuronal nicotinic acetylcholine receptors expressed in Xenopus oocytes following nuclear injection of genes or cDNAs Meth Neurosci 4: 174-193 (1991)) were injected with 50 ng of human P2X in vitro transcribed RNA, and incubated at 18° C. for 2-6 days in the ND96 solution (mM): NaCl96, KCl2, MgCl2 1, CaCl2 2, sodium pyruvate 5, HEPES 5, ph 7.6-7.5, penicillin (10 U/ml), and streptomycin (10 μg/ml).
Oocytes were placed in a 1 ml chamber and superfused at 2-3 ml/min with ND96 solution with 0.1 mM BaCl2 replacing the 2 mM CaCl2 to prevent activation of endogenous calcium-activated chloride currents (Barish, A transient calcium-dependent chloride current in the immature Xenopus oocytes J Physiol 342: 309-325 (1983)). Currents were measured using a two-electrode voltage-clamp amplifier (Geneclamp Axon Instruments)at a holding potential of -60 mV. Microelectrodes were filled with 3 M KCl (0.5-2 M.OMEGA.). Data were collected using PClamp software (Axon Instruments). ATP and other purinoceptor agonists were applied by a U-tube perfusion system (Fenwick et al, A patch clamp study of bovine chromaffin cells and their sensitivity to acetylcholine J Physiol 331: 577-597 (1982)) placed close (200-500 μm) to the oocyte. […] Concentration response relationships to ATP and its analogs were determined by measuring the peak amplitude of responses to a 5 s application of agonist applied at 10 min intervals. Responses to agonists were normalized in each oocyte to the peak response evoked by 100 μM ATP; 100 μM ATP was usually applied at the beginning and at the end of an experiment to determine if there was any rundown of the response. […] Antagonists were applied both in the superfusate and together with ATP in the U-tube solution. Antagonists were superfused for 5-10 min prior to the application of ATP.
Concentration response curves for purinoceptor agonists were fitted with a Hill slope of 1. Equi-effective concentrations i.e. concentration of agonist, giving 50% of the response to 100 μM ATP, (EEC50) were determined from individual concentration response curves. […] Data are presented throughout as mean ± SEM for a given number of oocytes.

Assay [5] deals with hP2X mRNA. As to the kind of experiment: induction of hP2X mRNA in HL60 cells by Northern blot. The assay is classed as cell-based, human. To be noted: 1.8 and 2.6 kb bands. The procedure: HL60 cells (human promyelocytes ATCC CCL240) were passaged twice weekly in RPMI-1640 supplemented with 25 mnM HEPES, 2 mM Glutamax II, and 10% heat-inactivated fetal calf serum (GIBCO BRL) . For each experiment 33×10^6 cells were resuspended at 2.5×10^5 cells/ml in medium containing either phorbol mystate acetate (100 nM), 1. 1% DMSO, or dibutyryl cAMP (200 uM) (SIGMA) for the indicated times.
PolyA^+ RNAs were obtained from Clontech Laboratories Inc. (Palo Alto) except for the urinary bladder and HL60 mRNA which were prepared as described (Valera et al (1994)--supra) . Samples were quantified by measuring the O.D. at 260 nm, and by staining the membrane with methylene blue. The RNA were fractionated on a 1% agarose--6% formaldehyde gel and electroblotted to a non-charged nylon membrane (BDH). Prehybridisation at 68° C. was performed for 6 hours in hybridisation buffer (50% formamide, 5× SSC, 2% blocking buffer (Boehringer Mannheim), 0.1%6 laurolylsarcosine, 0.02% SDS). Hybridisation was overnight at 68° C. in fresh hybridisation buffer with a digoxigenin-UTP labelled riboprobe (100 ng/ml) corresponding to the entire hP2 × sequence. The membrane was washed at 68° C.; twice in 2× SSC+0.1% SDS, and twice in 0.1× SSC+0.1% SDS. Chemiluminescent detection of hybridisation was carried at room temperature as follows: the membrane was rinsed 5 min in buffer B1 (0.1 M maleic acid, 0.15 M NaCl, pH 7.5), saturated for 1 hour in 1% blocking buffer (B2), incubated 30 min with anti-digoxigenin-antibody alkaline phosphatase conjugated (750 u/ml, Boehringer Mannheim) diluted 1:15000 in B2, washed in B1+0.30% tween 20 (1× 5 min, 1× 15 min, 1× 1 h), equilibrated for 5 min in buffer B3 (0.1 M Tris HCl pH 9.5, 0.1 M NaCl, 50 mM MgCl2), incubated 45-60 sec in lumigen PPD (Boehringer Mannheim) diluted 1:100 in B3. The humid membrane was sealed in a plastic bag, incubated 15 min at 37° C., and exposed 15 to 20 min to Hyperfilm-ECL (Amersham). […]

Setting [6] is: listed as Extracellular calcium.

`[Ca+2]` [Ca^++, calcium]: the “Ca++ block, PC12” value in assay [1] was “very strong”; in assay [1] (setting [6]) it was “inhibits the inward current”. Moreover, the “Ca++ block, clone 3” value was “intermediate” in assay [2] and “intermediate in sensitivity” in assay [2] (setting [6]). The “Ca++ block, bladder” value in assay [3] is “none”; in assay [3] (setting [6]) it was “does not block current”.
Take `O=S(=O)(O)c1cc(N=C=S)ccc1C=Cc1ccc(N=C=S)cc1S(=O)(=O)O` [DIDS, 4,4'-diisothiocyanatostilbene 2,2'-disulphonic acid, disodium salt]: the IC50 – broadly, the concentration at which inhibition is half-maximal – in assay [4] is approximately 1 µM; in assay [1] it was more than 100 µM. Also, in assay [4] (10 μM ATP (approximately EC90)), the “inhibition of inward currents evoked by 10 μM ATP” value is listed as “inhibited inward currents evoked by 10 μM ATP”. The “reversibility of inhibitory effects on washout” value in assay [4] (DIDS 100 μM) is given as “very slow to reverse on washout”.
In the case of `C[S+](C)[O-]` [DMSO], the “induction of P2X mRNA in HL60 cells” value in assay [5] was “produced an increase in P2X mRNA”.
For `CCCC(=O)Nc1ncnc2c1ncn2[C@@H]1O[C@@H]2COP(=O)(O)O[C@H]2[C@H]1OC(=O)CCC` [dibutryl cAMP, dibutyryl cAMP], the “induction of P2X mRNA in HL60 cells” value in assay [5] was “produced an increase in P2X mRNA”.
Same read-out and setting: the value for `CCCCCCCCCCCCCC(=O)O[C@@H]1[C@@H](C)[C@@]2(O)[C@@H](C=C(CO)C[C@]3(O)C(=O)C(C)=C[C@@H]23)[C@@H]2C(C)(C)[C@]12OC(C)=O` [phorbol diesters, phorbol mystate acetate] was “produced an increase in P2X mRNA”.

The values are drawn from patent US5985603A, “P2x receptor DNA and protein sequence” (Glaxo Group Limited, priority 1994, dated 1999).
